Source: US12502393B2, “Dual mode of action soluble guanylate cyclase activators and phosphodiesterase inhibitors and uses thereof” (TOPADUR PHARMA AG, priority 2018, dated 2025)

Target: T1, recombinant human (rh) PDE5A (Homo sapiens, UniProt O76074)
T1 construct: GST; purchased SIGMA E9034
Assay: Phosphodiesterase-5 activity assay (radiometric SPA)
Assay type: biochemical
Settings: rhPDE5A1, 0.5 μM cGMP, 20 min at 37° C.

| IC50 [nM] | Molecule |
| --- | --- |
| 0.4 | CCCc1nc(C)c2c(=O)[nH]c(-c3cc(S(=O)(=O)N4CCC(C(O)CCO)CC4)ccc3OCC)nn12 (racemic) [Compound 27, 2-(5-((4-(1,3-dihydroxypropyl)piperidin-1-yl)sulfonyl)-2-ethoxyphenyl)-5-methyl-7-propylimidazo[5,1-f][1,2,4]triazin-4(3H)-one] |
| 4.6 | CCCc1nn(C)c2c(=O)[nH]c(-c3cc(S(=O)(=O)N4CCC(C(O)CCO[N+](=O)[O-])CC4)ccc3OCC)nc12 (single isomer, unassigned) [Compound 1e, 3-(1-((4-ethoxy-3-(1-methyl-7-oxo-3-propyl-6,7-dihydro-1H-pyrazolo[4,3-d]pyrimidin-5-yl)phenyl)sulfonyl)piperidin-4-yl)-3-hydroxypropyl nitrate] |
| 3.8 | CCCc1nn(C)c2c(=O)[nH]c(-c3cc(S(=O)(=O)N4CCC(C(O)CCO[N+](=O)[O-])CC4)ccc3OCC)nc12 (single isomer, unassigned) [Compound 1f, 3-(1-((4-ethoxy-3-(1-methyl-7-oxo-3-propyl-6,7-dihydro-1H-pyrazolo[4,3-d]pyrimidin-5-yl)phenyl)sulfonyl)piperidin-4-yl)-3-hydroxypropyl nitrate] |
| 0.55 | CCCc1nn(C)c2c(=O)[nH]c(-c3cc(S(=O)(=O)N4CCC(C(CO)O[N+](=O)[O-])CC4)ccc3OCC)nc12 (single isomer, unassigned) [Compound 1k, 1-(1-((4-ethoxy-3-(1-methyl-7-oxo-3-propyl-6,7-dihydro-1H-pyrazolo[4,3-d]pyrimidin-5-yl)phenyl)sulfonyl)piperidin-4-yl)-2-hydroxyethyl nitrate] |
| 0.69 | CCCc1nn(C)c2c(=O)[nH]c(-c3cc(S(=O)(=O)N4CCC(C(CO)O[N+](=O)[O-])CC4)ccc3OCC)nc12 (single isomer, unassigned) [Compound 1l, 1-(1-((4-ethoxy-3-(1-methyl-7-oxo-3-propyl-6,7-dihydro-1H-pyrazolo[4,3-d]pyrimidin-5-yl)phenyl)sulfonyl)piperidin-4-yl)-2-hydroxyethyl nitrate] |
| 0.2 | CCCc1nc(C)c2c(=O)[nH]c(-c3cc(S(=O)(=O)N4CCC(C(O)CCO[N+](=O)[O-])CC4)ccc3OCC)nn12 (single isomer, unassigned) [Compound 2e, 3-(1-((4-ethoxy-3-(5-methyl-4-oxo-7-propyl-3,4-dihydroimidazo[5,1-f][1,2,4]triazin-2-yl)phenyl)sulfonyl)piperidin-4-yl)-3-hydroxypropyl nitrate] |
| 0.3 | CCCc1nc(C)c2c(=O)[nH]c(-c3cc(S(=O)(=O)N4CCC(C(O)CCO[N+](=O)[O-])CC4)ccc3OCC)nn12 (single isomer, unassigned) [Compound 2f, 3-(1-((4-ethoxy-3-(5-methyl-4-oxo-7-propyl-3,4-dihydroimidazo[5,1-f][1,2,4]triazin-2-yl)phenyl)sulfonyl)piperidin-4-yl)-3-hydroxypropyl nitrate] |
| 0.26 | CCCc1nc(C)c2c(=O)[nH]c(-c3cc(S(=O)(=O)N4CCC(C(CO)O[N+](=O)[O-])CC4)ccc3OCC)nn12 (single isomer, unassigned) [Compound 2k, 1-(1-((4-ethoxy-3-(5-methyl-4-oxo-7-propyl-3,4-dihydroimidazo[5,1-f][1,2,4]triazin-2-yl)phenyl)sulfonyl)piperidin-4-yl)-2-hydroxyethyl nitrate] |
| 0.17 | CCCc1nc(C)c2c(=O)[nH]c(-c3cc(S(=O)(=O)N4CCC(C(CO)O[N+](=O)[O-])CC4)ccc3OCC)nn12 (single isomer, unassigned) [Compound 2l, 1-(1-((4-ethoxy-3-(5-methyl-4-oxo-7-propyl-3,4-dihydroimidazo[5,1-f][1,2,4]triazin-2-yl)phenyl)sulfonyl)piperidin-4-yl)-2-hydroxyethyl nitrate] |
| 4.4 | CCCc1nn(C)c2c(=O)[nH]c(-c3cc(S(=O)(=O)N4CCC(C(O)CCO)CC4)ccc3OCC)nc12 (single isomer, unassigned) [Compound 14-1, 5-(5-((4-(1,3-dihydroxypropyl)piperidin-1-yl)sulfonyl)-2-ethoxyphenyl)-1-methyl-3-propyl-1,6-dihydro-7H-pyrazolo[4,3-d]pyrimidin-7-one] |
| 3.9 | CCCc1nn(C)c2c(=O)[nH]c(-c3cc(S(=O)(=O)N4CCC(C(O)CCO)CC4)ccc3OCC)nc12 (single isomer, unassigned) [Compound 14-2, 5-(5-((4-(1,3-dihydroxypropyl)piperidin-1-yl)sulfonyl)-2-ethoxyphenyl)-1-methyl-3-propyl-1,6-dihydro-7H-pyrazolo[4,3-d]pyrimidin-7-one] |
| 1.2 | CCCc1nn(C)c2c(=O)[nH]c(-c3cc(S(=O)(=O)N4CCC([C@H](O)CO[N+](=O)[O-])CC4)ccc3OCC)nc12 [Compound 1d, (S)-2-(1-((4-ethoxy-3-(1-methyl-7-oxo-3-propyl-6,7-dihydro-1H-pyrazolo[4,3-d]pyrimidin-5-yl)phenyl)sulfonyl)piperidin-4-yl)-2-hydroxyethyl nitrate] |
| 4.8 | CCCc1nn(C)c2c(=O)[nH]c(-c3cc(S(=O)(=O)N4CCC(C(O)(CCO)CCO[N+](=O)[O-])CC4)ccc3OCC)nc12 (stereo not drawn) [Compound 1g, 3-(1-((4-ethoxy-3-(1-methyl-7-oxo-3-propyl-6,7-dihydro-1H-pyrazolo[4,3-d]pyrimidin-5-yl)phenyl)sulfonyl)piperidin-4-yl)-3,5-dihydroxypentyl nitrate] |
| 1.6 | CCCc1nn(C)c2c(=O)[nH]c(-c3cc(S(=O)(=O)N4CCC([C@H](O)CO)CC4)ccc3OCC)nc12 [Compound 6, (S)-5-(5-((4-(1,2-dihydroxyethyl)piperidin-1-yl)sulfonyl)-2-ethoxyphenyl)-1-methyl-3-propyl-1,6-dihydro-7H-pyrazolo[4,3-d]pyrimidin-7-one] |

| Molecule | IC50 [nM] |
| --- | --- |
| 4-ethoxy-3-(5-methyl-4-oxo-7-propyl-3,4-dihydroimidazo[5,1-f][1,2,4]triazin-2-yl)benzenesulfonyl chloride [Compound 24] | 0.4 |
| CCCc1nn(C)c2c(=O)[nH]c(-c3cc(S(=O)(=O)N4CCC([C@@H](CO[N+](=O)[O-])O[N+](=O)[O-])CC4)ccc3OCC)nc12 [Compound 1b, (S)-1-(1-((4-ethoxy-3-(1-methyl-7-oxo-3-propyl-6,7-dihydro-1H-pyrazolo[4,3-d]pyrimidin-5-yl)phenyl)sulfonyl)piperidin-4-yl)ethane-1,2-diyl dinitrate] | 4.9 |
| CCCc1nn(C)c2c(=O)[nH]c(-c3cc(S(=O)(=O)N4CCC(C(O)(CCO[N+](=O)[O-])CCO[N+](=O)[O-])CC4)ccc3OCC)nc12 [Compound 1h, 3-(1-((4-ethoxy-3-(1-methyl-7-oxo-3-propyl-6,7-dihydro-1H-pyrazolo[4,3-d]pyrimidin-5-yl)phenyl)sulfonyl)piperidin-4-yl)-3-hydroxypentane-1,5-diyl dinitrate] | 4.7 |
| CCCc1nc(C)c2c(=O)[nH]c(-c3cc(S(=O)(=O)N4CCC([C@@H](CO[N+](=O)[O-])O[N+](=O)[O-])CC4)ccc3OCC)nn12 [Compound 2b, (S)-1-(1-((4-ethoxy-3-(5-methyl-4-oxo-7-propyl-3,4-dihydroimidazo[5,1-f][1,2,4]triazin-2-yl)phenyl)sulfonyl)piperidin-4-yl)ethane-1,2-diyl dinitrate] | 0.28 |
